{"source": "patent US8883140B2", "about": "(Henkel AG & Co. KGaA, priority 2010, dated 2014)", "test_system": "variant F49 of the protease from Bacillus lentus", "experiment": "Residual proteolytic activity after storage in liquid washing agent (suc-AAPF-pNA release)", "format": "biochemical", "settings": "13 days at 30° C., based on initial activity of 100%", "from_the_text": "A liquid washing agent of the following composition served as a baseline washing agent formulation (all indications in percent by weight): 0.3 to 0.5% xanthan, 0.2 to 0.4% antifoaming agent, 6 to 7% glycerol, 0.3 to 0.5% ethanol, 4 to 7% FAEOS (fatty alcohol ether sulfate), 24 to 28% nonionic surfactants, 1 to 2% sodium citrate (dihydrate), 2 to 4% soda, 14 to 16% coconut fatty acids, 0.5% HEDP (1-hydroxyethane-(1,1-diphosphonic acid)), 0 to 0.4% PVP (polyvinylpyrrolidone), 0 to 0.05% optical brightener, 0 to 0.001% dye, remainder demineralized water.\nThe oligoaminobiphenyl oligocarboxylic acid 3,3-diamino-[1,1-biphenyl]-2,4-dicarboxylic acid was incorporated into this formulation as the component stabilizing the hydrolytic enzyme, as indicated below (see Table 1, indications in this regard in wt %). Comparison formulations that contained either boric acid as an enzyme stabilizer, or no enzyme stabilizer, served as controls. The protease used was variant F49 of the protease from Bacillus lentus in accordance with WO 95/23221 (quantity used: 1 wt % active substance).\nAfter storage, the respective residual proteolytic activity was determined by way of the release of the para-nitroaniline (pNA) chromophore from the suc-L-Ala-L-Ala-L-Pro-L-Phe-p-nitroanilide substrate (suc-AAPF-pNA) (SEQ ID NO. 1). The protease cleaves the substrate and releases pNA. The release of pNA causes an increase in extinction at 410 nm, the time course of which is an indication of enzymatic activity (see Del Mar et al., 1979). Measurement occurred at a temperature of 25° C., at pH 8.6 and at a wavelength of 410 nm. The measurement time was 5 min, with a measurement interval from 20 s to 60 s. The proteolytic activity values obtained are indicated in Table 1 below, based on an initial activity of 100% when storage began.", "key": {"[1]": {"settings": "1.0 wt % (1%) stabilizer in baseline liquid washing agent"}}}
{"smiles": "Nc1cc(-c2cccc(N)c2C(=O)O)ccc1C(=O)O", "values": [{"measurement": "residual proteolytic activity after storage", "setting": "0.1 wt % stabilizer in baseline liquid washing agent", "result": 30.2, "unit": "%"}, {"measurement": "residual proteolytic activity after storage", "setting": "0.5 wt % stabilizer in baseline liquid washing agent", "result": 43.5, "unit": "%"}, {"measurement": "residual proteolytic activity after storage", "setting": "[1]", "result": 48.0, "unit": "%"}, {"measurement": "residual proteolytic activity after storage", "setting": "2.0 wt % stabilizer in baseline liquid washing agent", "result": 73.6, "unit": "%"}]}
{"smiles": "OB(O)O", "note": "[boric acid, reference compound]", "values": [{"measurement": "residual proteolytic activity after storage", "setting": "[1]", "result": 74.9, "unit": "%"}]}
